Experimental findings from US20230286978A1, “INDAZOLE DERIVATIVES AS INHIBITORS OF SARM1” (Disarm Therapeutics, Inc., priority 2020, published 2023) are described below.

In this assay the target is SARM1 (Homo sapiens (Human), UniProt Q6SZW1). Kind of assay: ARM-SAM-TIR SARM1 IC50 assay (NADase activity, RapidFire mass spectrometry). It is filed as biochemical. The note with it: ARM-SAM-TIR lysate 5 µg/mL, 2 h pre-incubation with compound, 5 µM NAD+, 2 hr at room temperature. The source says:
This Example describes an assay of ARM-SAM-TIR NADase activity and use of this assay to measure the efficacy of compounds of Formula I/II to block SARM1 mediated NAD+ cleavage. This assay was optimized in such a way as to characterize the efficacy of the compounds in Formula I/IIto inhibit SARM1 activity and to calculate an IC50 value for each compound. This assay makes use of […], which encompasses the ARM, SAM and TIR domains. […] The next day, the cells were transfected with 15 μg ARM-SAM-TIR expression plasmid, SEQ ID NO: 1. The cultures were supplemented with 1 mM NR at time of transfection to minimize toxicity from ARM-SAM-TIR overexpression. Forty-eight hours after transfection, cells were harvested, pelleted by centrifugation at 1,000 rpm (Sorvall ST 16R centrifuge, Thermo Fisher), and washed once with cold PBS (0.01 M phosphate buffered saline NaCl 0.138 M; KCl 0.0027 M; pH 7.4). The cells were resuspended in PBS with protease inhibitors (cOmpleteTM protease inhibitor cocktail, Roche product # 11873580001) and cell lysates were prepared by sonication (Branson Sonifer 450, output = 3, 20 episodes of stroke). The lysates were centrifuged (12,000×g for 10 min at 4° C.) to remove cell debris and the supernatants (containing ARM-SAM-TIR protein) were stored at -80° C. for later use in the in vitro ARM-SAM-TIR NADase assay (see below). Protein concentration was determined by the Bicinchoninic (BCA) method and used to normalize lysate concentrations. The enzymatic assay was performed in a 384-well polypropylene plate in Dulbecco's PBS buffer in a final assay volume of 20 μL. […] The reaction was initiated by addition of 5 μM final assay concentration of NAD+ as substrate. After a 2 hr room temperature incubation, the reaction was terminated with 40 μL of stop solution of 7.5% trichloroactetic acid in acetonitrile. The NAD+ and ADPR concentrations were analyzed by a RapidFire High Throughput Mass Spectrometry System (Agilent Technologies, Santa Clara, CA) using an API4000 triple quadrupole mass spectrometer (AB Sciex Framingham, MA).

Sequence of SARM1 (Q6SZW1 other isoform, or with tags, fused parts or gaps): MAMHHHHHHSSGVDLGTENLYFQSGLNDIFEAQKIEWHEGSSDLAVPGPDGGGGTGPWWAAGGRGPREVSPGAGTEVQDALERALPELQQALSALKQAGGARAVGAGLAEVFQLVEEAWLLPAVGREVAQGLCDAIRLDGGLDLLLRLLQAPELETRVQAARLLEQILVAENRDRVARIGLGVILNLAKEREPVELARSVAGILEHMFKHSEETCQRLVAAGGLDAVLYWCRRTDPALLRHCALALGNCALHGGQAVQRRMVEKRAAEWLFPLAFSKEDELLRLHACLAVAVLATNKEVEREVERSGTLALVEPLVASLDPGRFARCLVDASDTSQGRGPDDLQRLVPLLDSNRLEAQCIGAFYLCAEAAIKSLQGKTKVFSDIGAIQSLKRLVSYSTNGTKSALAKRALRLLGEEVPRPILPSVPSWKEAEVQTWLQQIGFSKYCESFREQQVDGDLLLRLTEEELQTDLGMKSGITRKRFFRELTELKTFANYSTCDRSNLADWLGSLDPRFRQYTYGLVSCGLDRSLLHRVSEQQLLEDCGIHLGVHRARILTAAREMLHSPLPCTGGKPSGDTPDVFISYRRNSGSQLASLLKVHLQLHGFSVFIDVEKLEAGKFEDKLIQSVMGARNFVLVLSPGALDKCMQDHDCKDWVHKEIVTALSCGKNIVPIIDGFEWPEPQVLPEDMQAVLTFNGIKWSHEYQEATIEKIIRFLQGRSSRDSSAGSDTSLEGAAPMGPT

Turning to `O=C(NCc1ccc(Cl)cc1)c1cccc2c(-c3ccncc3)n[nH]c12` [Example 1], the IC50 is under 100 nM.

Consider `O=C(NCc1ccccc1)c1cccc2c(-c3ccncc3)n[nH]c12` [Example 2], for which the IC50 was 100 to 1000 nM.

`O=C(NCc1ccc(Cl)cc1)c1cncc2c(-c3ccncc3)n[nH]c12` [Example 4]: the IC50 was under 100 nM.

For the molecule `O=C(NCc1ccc(Cl)cc1)c1ccnc2c(-c3ccncc3)n[nH]c12` [Example 5], the IC50 was under 100 nM.

As to `O=C(NCc1ccccc1)c1cncc2c(-c3ccncc3)n[nH]c12` [Example 6], the concentration for half-maximal inhibition (IC50) was 100 to 1000 nM.

For `O=C(NCc1ccccc1)c1ccnc2c(-c3ccncc3)n[nH]c12` [Example 7], the IC50 lay in the range of 1010 to 5000 nM.

Turning to `C[C@H](NC(=O)c1cccc2c(-c3ccncc3)n[nH]c12)c1ccc(Cl)cc1` [Example 8], the IC50 is over 10000 nM.

As to `O=C(NCc1ccc(Cl)nc1)c1cccc2c(-c3ccncc3)n[nH]c12` [Example 9], the IC50 lay in the range of 100 to 1000 nM.

As to `O=C(NCc1ccc(Cl)cc1)c1cccc2c(-c3ccncc3F)n[nH]c12` [Example 10], the IC50 is under 100 nM.

Turning to `O=C(NCc1ccc(Cl)c(F)c1)c1cccc2c(-c3ccncc3F)n[nH]c12` [Example 12], the IC50 was under 100 nM.

Consider `O=C(NCc1ccc(Cl)s1)c1cccc2c(-c3ccncc3F)n[nH]c12` [Example 13], for which the IC50 lay in the range of 100 to 1000 nM.
